This passage reports Kd results from doi:10.1101/306035v1 (biorxiv, 2018).

The target in this assay is T1, DcaPTrunc (Acinetobacter baumannii, UniProt A0A0D5YFT0).
T1 sequence (A0A0D5YFT0 89-434): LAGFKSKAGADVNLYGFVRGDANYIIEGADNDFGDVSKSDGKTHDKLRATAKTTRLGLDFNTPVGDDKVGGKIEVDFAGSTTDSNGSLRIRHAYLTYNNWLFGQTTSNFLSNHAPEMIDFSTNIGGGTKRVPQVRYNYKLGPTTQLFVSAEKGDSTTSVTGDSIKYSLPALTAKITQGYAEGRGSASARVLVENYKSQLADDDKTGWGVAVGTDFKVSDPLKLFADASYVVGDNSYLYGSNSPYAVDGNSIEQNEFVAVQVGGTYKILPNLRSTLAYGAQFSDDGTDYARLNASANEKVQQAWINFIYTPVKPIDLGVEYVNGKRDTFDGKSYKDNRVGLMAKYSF
Description: biochemical.

One may read the Kd as the free concentration of one partner at which half of the binding sites on the other are occupied at equilibrium, for simple one-to-one binding. Higher therefore signals lower affinity.

`O=C(O)c1ccccc1C(=O)O` [o-phthalic acid] showed a dissociation constant Kd of approximately 9 mM.
